Laboratory results taken from PubChem BioAssay (NCI).
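Exposure lasted 48 hours, with cells grown in 96-well plates and compounds tested at five concentrations. The concentration for full growth arrest is given as TGI.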

What was measured:
Experiment in all cases: NCI-60 cell line screen, 48 h
[1] = system: HOP-92 NSCLC
[2] = system: NCI-H23 lung
[3] = system: UACC-62 melanoma
[4] = system: MOLT-4 leukemia
[5] = system: A549 NSCLC
[6] = system: NCI-H522 lung
[7] = system: HCC-2998 colon
[8] = system: A498 renal
[9] = system: EKVX NSCLC
[10] = system: XF 498 CNS
[11] = system: SK-OV-3 ovarian
[12] = system: OVCAR-3 ovarian
[13] = system: NCI-H460 lung
[14] = system: DMS 114 small cell lung
[15] = system: SNB-78 CNS
[16] = system: SK-MEL-5 melanoma
[17] = system: SN12C renal
[18] = system: COLO 205 colon
[19] = system: HCT-15 colon
[20] = system: CCRF-CEM leukemia
[21] = system: SK-MEL-2 melanoma
[22] = system: UACC-257 melanoma
[23] = system: SR leukemia
[24] = system: OVCAR-4 ovarian
[25] = system: HT29 colon
[26] = system: TK-10 renal
[27] = system: SNB-19 CNS
[28] = system: M19-MEL melanoma
[29] = system: LXFL 529 NSCLC
[30] = system: RPMI-8226 leukemia
[31] = system: MALME-3M melanoma
[32] = system: ACHN renal
[33] = system: HCT-116 colon
[34] = system: HL-60(TB) leukemia
[35] = system: OVCAR-5 ovarian
[36] = system: SW-620 colon
[37] = system: SF-295 CNS
[38] = system: K-562 leukemia
[39] = system: CAKI-1 renal
[40] = system: SNB-75 CNS
[41] = system: U251 CNS
[42] = system: SK-MEL-28 melanoma
[43] = system: M14 melanoma
[44] = system: SF-539 CNS
[45] = system: KM20L2 colon
[46] = system: OVCAR-8 ovarian
[47] = system: IGROV1 ovarian
[48] = system: KM12 colon
[49] = system: DLD-1 colon
[50] = system: HOP-62 NSCLC
[51] = system: SF-268 CNS
[52] = system: DMS 273 small cell lung
[53] = system: UO-31 renal

Measured: TGI

Cn1c(=O)c2nc(N3CCOCC3)cnc2n(C)c1=O
> 100 µM: all assays above
